Measured values: patent US9873709B2 (priority 2013, dated 2018)

test system: JAK1-dependent STAT6 phosphorylation downstream of IL-13 stimulation in TF-1 human erythroleukemia cells; assay: cells; conditions: TF-1, read-out: IL-13-pSTAT6 IC50

IC50 [nM] | Structure (SMILES)
23.3 | O=C(CCC(F)(F)F)N1CC=C(c2cccn3nc(Nc4ccc(C(=O)N5CCNCC5CO)cc4)nc23)CC1 (stereo not drawn) [Example 2-33, 4,4,4-trifluoro-1-[4-[2-[4-[2-(hydroxymethyl)piperazine-1-carbonyl]anilino]-[1,2,4]triazolo[1,5-a]pyridin-8-yl]-3,6-dihydro-2H-pyridin-1-yl]butan-1-one]
279 | O=C(NC1CCNC1)c1ccc(Nc2nc3c(N4CCC(O)(c5ccc(Cl)cc5)CC4)cccn3n2)cc1 (stereo not drawn) [Example 1-176, 4-[[8-[4-(4-chlorophenyl)-4-hydroxy-1-piperidyl]-[1,2,4]triazolo[1,5-a]pyridin-2-yl]amino]-N-pyrrolidin-3-yl-benzamide]
180 | O=C(N[C@H]1[C@@H]2CNC[C@@H]21)c1ccc(Nc2nc3c(N4CCC(O)(c5ccc(Cl)cc5)CC4)cccn3n2)cc1 [Example 1-238, N-[(1R,5S)-3-azabicyclo[3.1.0]hexan-6-yl]-4-[[8-[4-(4-chlorophenyl)-4-hydroxy-1-piperidyl]-[1,2,4]triazolo[1,5-a]pyridin-2-yl]amino]benzamide]
9 | O=C(CCC(F)(F)F)N1CC=C(c2cccn3nc(Nc4ccc(C(=O)N5CCC(N6CCOCC6)C5)cc4)nc23)CC1 (stereo not drawn) [Example 2-45, 4,4,4-trifluoro-1-[4-[2-[4-(3-morpholinopyrrolidine-1-carbonyl)anilino]-[1,2,4]triazolo[1,5-a]pyridin-8-yl]-3,6-dihydro-2H-pyridin-1-yl]butan-1-one]
1260 | CN1CCC(N(C)C(=O)c2ccc(Nc3nc4c(C5=CCN(C(=O)N6CCOCC6)CC5)cccn4n3)cc2)CC1 [Example 2-413, N-methyl-N-(1-methyl-4-piperidyl)-4-[[8-[1-(morpholine-4-carbonyl)-3,6-dihydro-2H-pyridin-4-yl]-[1,2,4]triazolo[1,5-a]pyridin-2-yl]amino]benzamide]
37.7 | CN1CCC(N(C)C(=O)c2ccc(Nc3nc4c(C5=CCN(C(=O)N6CC(C)(C)C6)CC5)cccn4n3)cc2)CC1 [Example 2-290, 4-[[8-[1-(3,3-dimethylazetidine-1-carbonyl)-3,6-dihydro-2H-pyridin-4-yl]-[1,2,4]triazolo[1,5-a]pyridin-2-yl]amino]-N-methyl-N-(1-methyl-4-piperidyl)benzamide]
8.3 | CN1CCC(N(C(=O)c2ccc(Nc3nc4c(C5=CCN(C(=O)CCC(F)(F)F)CC5)cccn4n3)cc2)C2CC2)CC1 [Example 2-150, N-cyclopropyl-N-(1-methyl-4-piperidyl)-4-[[8-[1-(4,4,4-trifluorobutanoyl)-3,6-dihydro-2H-pyridin-4-yl]-[1,2,4]triazolo[1,5-a]pyridin-2-yl]amino]benzamide]
13 | CCOC(=O)N1CC=C(c2cccn3nc(Nc4ccc(C(=O)NCC5CCCCN5C)cc4)nc23)CC1 (stereo not drawn) [Example 2-415, ethyl 4-[2-[4-[(1-methyl-2-piperidyl)methylcarbamoyl]anilino]-[1,2,4]triazolo[1,5-a]pyridin-8-yl]-3,6-dihydro-2H-pyridine-1-carboxylate]
30.8 | O=C(c1ccc(Nc2nc3c(N4CCC(O)(c5ccc(Cl)cc5)CC4)cccn3n2)cc1)N1CCOC2(CCCNC2)C1 (stereo not drawn) [Example 1-225, [4-[[8-[4-(4-chlorophenyl)-4-hydroxy-1-piperidyl]-[1,2,4]triazolo[1,5-a]pyridin-2-yl]amino]phenyl]-(1-oxa-4,8-diazaspiro[5.5]undecan-4-yl)methanone]
44.2 | CN1CCC(N(C)C(=O)c2ccc(Nc3nc4c(C5=CCN(C(=O)C6C(C)(C)C6(C)C)CC5)cccn4n3)cc2)CC1 [Example 2-161, N-methyl-N-(1-methyl-4-piperidyl)-4-[[8-[1-(2,2,3,3-tetramethylcyclopropanecarbonyl)-3,6-dihydro-2H-pyridin-4-yl]-[1,2,4]triazolo[1,5-a]pyridin-2-yl]amino]benzamide]
115 | O=C(NCCN1CCC(O)CC1)c1ccc(Nc2nc3c(N4CCC(O)(c5ccc(Cl)cc5)CC4)cccn3n2)cc1 [Example 1-95, 4-[[8-[4-(4-chlorophenyl)-4-hydroxy-1-piperidyl]-[1,2,4]triazolo[1,5-a]pyridin-2-yl]amino]-N-[2-(4-hydroxy-1-piperidyl)ethyl] benzamide]
63.7 | CCOC(=O)N1CC=C(c2cccn3nc(Nc4ccc(C(=O)N5CCCC(O)(CN6CCCC6)CC5)cc4)nc23)CC1 (stereo not drawn) [Example 2-241, ethyl 4-[2-[4-[4-hydroxy-4-(pyrrolidin-1-ylmethyl)azepane-1-carbonyl]anilino]-[1,2,4]triazolo[1,5-a]pyridin-8-yl]-3,6-dihydro-2H-pyridine-1-carboxylate]
257 | CCOC(=O)N1CC=C(c2cccn3nc(Nc4ccc(C(=O)NC5CC6(CCNCC6)C5)cc4)nc23)CC1 [Example 2-27, ethyl 4-[2-[4-(7-azaspiro[3.5]nonan-2-ylcarbamoyl)anilino]-[1,2,4]triazolo[1,5-a]pyridin-8-yl]-3,6-dihydro-2H-pyridine-1-carboxylate]
53.1 | O=C(c1ccc(Nc2nc3c(N4CCC(O)(c5ccc(Cl)cc5)CC4)cccn3n2)cc1)N1CCNCC1CO (stereo not drawn) [Example 1-196, [4-[[8-[4-(4-chlorophenyl)-4-hydroxy-1-piperidyl]-[1,2,4]triazolo[1,5-a]pyridin-2-yl]amino]phenyl]-[2-(hydroxymethyl)piperazin-1-yl]methanone]
57.9 | CN1CCCC(CNC(=O)c2ccc(Nc3nc4c(N5CCC(O)(c6ccc(Cl)cc6)CC5)cccn4n3)cc2)C1 (stereo not drawn) [Example 1-141, 4-[[8-[4-(4-chlorophenyl)-4-hydroxy-1-piperidyl]-[1,2,4]triazolo[1,5-a]pyridin-2-yl]amino]-N-[(1-methyl-3-piperidyl)methyl]benzamide]
196 | O=C(c1ccc(Nc2nc3c(N4CCC(O)(c5ccc(Cl)cc5)CC4)cccn3n2)cc1)N1CCC2(CCCNC2)C1 (stereo not drawn) [Example 1-212, [4-[[8-[4-(4-chlorophenyl)-4-hydroxy-1-piperidyl]-[1,2,4]triazolo[1,5-a]pyridin-2-yl]amino]phenyl]-(2,9-diazaspiro[4.5]decan-2-yl)methanone]
127 | O=C(NCC1CCNCC1)c1ccc(Nc2nc3c(N4CCC(O)(c5ccc(Cl)cc5)CC4)cccn3n2)cc1 [Example 1-184, 4-[[8-[4-(4-chlorophenyl)-4-hydroxy-1-piperidyl]-[1,2,4]triazolo[1,5-a]pyridin-2-yl]amino]-N-(4-piperidylmethyl)]
7.5 | O=C(CCC(F)(F)F)N1CC=C(c2cccn3nc(Nc4ccc(C(=O)N5CCC(Cc6cccnc6)C5)cc4)nc23)CC1 (stereo not drawn) [Example 2-405, 4,4,4-trifluoro-1-[4-[2-[4-[3-(3-pyridylmethyl)pyrrolidine-1-carbonyl]anilino]-[1,2,4]triazolo[1,5-a]pyridin-8-yl]-3,6-dihydro-2H-pyridin-1-yl]butan-one]
65 | CNC(=O)C1CN(C)CCN1C(=O)c1ccc(Nc2nc3c(N4CCC(O)(c5ccc(Cl)cc5)CC4)cccn3n2)cc1 (stereo not drawn) [Example 1-152, 1-[4-[[8-[4-(4-chlorophenyl)-4-hydroxy-1-piperidyl]-[1,2,4]triazolo[1,5-a]pyridin-2-yl]amino]benzoyl]-N,4-dimethyl-piperazine-2-carboxamide]
27.4 | CC(=O)N1CC2(C1)CN(C(=O)c1ccc(Nc3nc4c(N5CCC(O)(c6ccc(Cl)cc6)CC5)cccn4n3)cc1)C2 [Example 1-53, 1-[2-[4-[[8-[4-(4-chlorophenyl)-4-hydroxy-1-piperidyl]-[1,2,4]triazolo[1,5-a]pyridin-2-yl]amino]benzoyl]-2,6-diazaspiro[3.3]heptan-6-yl]ethanone]
15.8 | CCOC(=O)N1CC=C(c2cccn3nc(Nc4ccc(C(=O)NCCN5CC(C)OC(C)C5)cc4)nc23)CC1 (stereo not drawn) [Example 2-167, ethyl 4-[2-[4-[2-(2,6-dimethylmorpholin-4-yl)ethylcarbamoyl]anilino]-[1,2,4]triazolo[1,5-a]pyridin-8-yl]-3,6-dihydro-2H-pyridine-1-carboxylate]
33.7 | CN(C)CCN1CCN(C(=O)c2ccc(Nc3nc4c(C5=CCN(C(=O)CCC(F)(F)F)CC5)cccn4n3)cc2)CC1 [Example 2-102, 1-[4-[2-[4-[4-[2-(dimethylamino)ethyl]piperazine-1-carbonyl]anilino]-[1,2,4]triazolo[1,5-a]pyridin-8-yl]-3,6-dihydro-2H-pyridin-1-yl]-4,4,4-trifluoro-butan-1-one]
4.6 | O=C(CCC(F)(F)F)N1CC=C(c2cccn3nc(Nc4ccc(C(=O)N5CCN(c6cccnc6)CC5)cc4)nc23)CC1 [Example 2-395, 4,4,4-trifluoro-1-[4-[2-[4-[4-(3-pyridyl)piperazine-1-carbonyl]anilino]-[1,2,4]triazolo[1,5-a]pyridin-8-yl]-3,6-dihydro-2H-pyridin-1-yl]butan-1-one]
620 | CN1CCC(N(C)C(=O)c2ccc(Nc3nc4c(C5=CCN(C(=O)CCO)CC5)cccn4n3)cc2)CC1 [Example 2-9, 4-[[8-[1-(3-hydroxypropanoyl)-3,6-dihydro-2H-pyridin-4-yl]-[1,2,4]triazolo[1,5-a]pyridin-2-yl]amino]-N-methyl-N-(1-methyl-4-piperidyl)benzamide]
163 | O=C(CCC(F)(F)F)N1CC=C(c2cccn3nc(Nc4ccc(C(=O)N5CCCNCC5)cc4)nc23)CC1 [Example 2-195, 1-[4-[2-[4-(1,4-diazepane-1-carbonyl)anilino]-[1,2,4]triazolo[1,5-a]pyridin-8-yl]-3,6-dihydro-2H-pyridin-1-yl]-4,4,4-trifluoro-butan-1-one]
33.7 | CCOC(=O)N1CC=C(c2cccn3nc(Nc4ccc(C(=O)N5CC6(CCCCN6)C5)cc4)nc23)CC1 [Example 2-437, ethyl 4-[2-[4-(2,5-diazaspiro[3.5]nonane-2-carbonyl)anilino]-[1,2,4]triazolo[1,5-a]pyridin-8-yl]-3,6-dihydro-2H-pyridine-1-carboxylate]

Structure (SMILES) | IC50 [nM]
CN1CCC(N(C)C(=O)c2ccc(Nc3nc4c(C5=CCN(S(=O)(=O)N6CC(C)(C)C6)CC5)cccn4n3)cc2)CC1 [Example 2-479, 4-[[8-[1-(3,3-dimethylazetidin-1-yl)sulfonyl-3,6-dihydro-2H-pyridin-4-yl]-[1,2,4]triazolo[1,5-a]pyridin-2-yl]amino]-N-methyl-N-(1-methyl-4-piperidyl)benzamide] | 239
